This is an account of results in patent US10732169B2, “Personalized healthcare P4 drug monitoring system and method” (eNano Health Limited, priority 2016, dated 2020).

The conditions of series [1]: LC/MS, all subjects, FIG. 15.
Experimental: In a third illustrative example, the detection of a HIV drug in saliva is conducted according to the claimed invention. […] Sample analysis hardware includes chromatography and mass spectrometry functionality and can additionally include genetic sequencing functionality.
The conditions of series [2]: known value; cited from earlier work.
Series [3] can be described thus: Keppra levels in dried spot saliva samples over time after taking the drug, LC/MS. In kind it is in vivo. Conditions: two separate days, FIG. 14. The protocol: FIGS. 9 to 14 further illustrate the detection of Keppra in saliva. Levetiracetam (Trade Name: Keppra), is a medication used to treat epilepsy. In the illustrative example, the saliva specimens are collected on 2 separate days. On each day, subject is asked to collect blood/saliva samples before taking Keppra (time=0 hour), and after taking the drug (time=1, 2, 4, 8 hours). Saliva samples are collected in both liquid and dried spot forms. Blood samples are collected in dried spot form and are stored at room temperature before transportation for analytical laboratory analysis using LC/MS.
FIG. 13 is a graphical representation of Keppra levels using dried saliva comparatively measured. Graphical representation 1301 illustrates the comparison of dried saliva spot samples over two separate days.
FIG. 14 is a graphical representation of Keppra levels using dried saliva comparatively measured. The half-life of Keppra is known to be 5-8 hours. […] Consequently, dried spot saliva samples reliably reflect clearance of Keppra from the body according to the claimed invention.

Turning to `Nc1nc(=O)n([C@@H]2CS[C@H](CO)O2)cc1F` [FTC], the “detection of drug fragment ion in saliva” value in series [1] is listed as “detection of the FTC fragment ion”.
Consider `CC[C@@H](C(N)=O)N1CCCC1=O` [Keppra, Levetiracetam], for which the half-life – broadly, the time needed for the level to fall by half in the phase considered – in series [2] was 5 to 8 h. For the same compound, the “time after which Keppra level depleted by half” value in series [3] was 8 h.
